In patent US6693103B2 (Wyeth, priority 1999, dated 2004):

Tests used:
[1] = tested on: rat uterine decidualization; assay: Rat decidualization assay; assay type: in vivo; conditions: ovariectomized female Sprague-Dawley rats, s.c.; average of dose-response curves
Procedure: The animals are treated once daily for seven days.
Uteri are removed and trimmed of fat.
Decidual response: [(D−C)/C]×100%

average EC50 for uterine weight (decidual response) [1] [mg/kg] | melting point [°C] | Structure (SMILES)
0.10 | – | C#C[C@]1(O)CC[C@H]2[C@@H]3CCC4=CC(=O)CC[C@@H]4[C@H]3C(=C)C[C@@]21CC [3-Ketodesogestrel]
– | 190 to 192 | CC1(C)CC(=O)Nc2ccc(-c3cccc(C#N)c3)cc21 [Example 42, 3-(4,4-Dimethyl-2-oxo-1,2,3,4-tetrahydroquinolin-6-yl)benzonitrile]
0.10 | – | C#C[C@]1(O)CC[C@H]2[C@@H]3CCC4=CC(=O)CC[C@@H]4[C@H]3CC[C@@]21CC [Levonorgestrel]
